pIC50: −log10 of the molar value. Counter-ions that a name gives are not always drawn.

Chain of PI3Kδ (O00329 whole entry): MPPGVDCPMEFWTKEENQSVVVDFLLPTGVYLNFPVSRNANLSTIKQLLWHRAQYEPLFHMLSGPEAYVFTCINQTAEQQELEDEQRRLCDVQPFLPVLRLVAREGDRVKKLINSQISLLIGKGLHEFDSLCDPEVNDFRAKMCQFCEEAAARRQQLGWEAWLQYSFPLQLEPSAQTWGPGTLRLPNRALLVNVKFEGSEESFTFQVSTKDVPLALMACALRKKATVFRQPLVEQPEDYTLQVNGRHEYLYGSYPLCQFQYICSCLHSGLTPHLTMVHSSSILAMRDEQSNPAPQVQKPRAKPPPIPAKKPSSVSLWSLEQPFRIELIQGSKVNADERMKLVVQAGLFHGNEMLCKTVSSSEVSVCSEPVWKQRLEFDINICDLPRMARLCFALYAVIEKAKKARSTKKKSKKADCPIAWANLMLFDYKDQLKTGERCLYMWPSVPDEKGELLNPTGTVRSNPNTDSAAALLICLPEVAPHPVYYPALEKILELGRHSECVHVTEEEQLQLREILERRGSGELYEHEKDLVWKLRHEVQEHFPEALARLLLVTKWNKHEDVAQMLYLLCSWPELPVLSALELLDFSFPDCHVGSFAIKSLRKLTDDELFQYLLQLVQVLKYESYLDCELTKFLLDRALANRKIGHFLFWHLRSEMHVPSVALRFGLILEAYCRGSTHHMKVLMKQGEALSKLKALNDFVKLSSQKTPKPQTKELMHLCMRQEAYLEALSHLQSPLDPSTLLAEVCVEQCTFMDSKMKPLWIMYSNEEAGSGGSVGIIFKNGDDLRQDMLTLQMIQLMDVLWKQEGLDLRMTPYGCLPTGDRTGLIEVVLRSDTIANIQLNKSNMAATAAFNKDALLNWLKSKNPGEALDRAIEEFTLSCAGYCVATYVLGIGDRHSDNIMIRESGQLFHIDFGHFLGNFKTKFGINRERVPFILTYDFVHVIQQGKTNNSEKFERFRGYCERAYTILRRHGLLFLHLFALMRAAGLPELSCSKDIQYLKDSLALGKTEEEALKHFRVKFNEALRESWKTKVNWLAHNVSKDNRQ
Chain of PI3Kδ (P27986 whole entry partner): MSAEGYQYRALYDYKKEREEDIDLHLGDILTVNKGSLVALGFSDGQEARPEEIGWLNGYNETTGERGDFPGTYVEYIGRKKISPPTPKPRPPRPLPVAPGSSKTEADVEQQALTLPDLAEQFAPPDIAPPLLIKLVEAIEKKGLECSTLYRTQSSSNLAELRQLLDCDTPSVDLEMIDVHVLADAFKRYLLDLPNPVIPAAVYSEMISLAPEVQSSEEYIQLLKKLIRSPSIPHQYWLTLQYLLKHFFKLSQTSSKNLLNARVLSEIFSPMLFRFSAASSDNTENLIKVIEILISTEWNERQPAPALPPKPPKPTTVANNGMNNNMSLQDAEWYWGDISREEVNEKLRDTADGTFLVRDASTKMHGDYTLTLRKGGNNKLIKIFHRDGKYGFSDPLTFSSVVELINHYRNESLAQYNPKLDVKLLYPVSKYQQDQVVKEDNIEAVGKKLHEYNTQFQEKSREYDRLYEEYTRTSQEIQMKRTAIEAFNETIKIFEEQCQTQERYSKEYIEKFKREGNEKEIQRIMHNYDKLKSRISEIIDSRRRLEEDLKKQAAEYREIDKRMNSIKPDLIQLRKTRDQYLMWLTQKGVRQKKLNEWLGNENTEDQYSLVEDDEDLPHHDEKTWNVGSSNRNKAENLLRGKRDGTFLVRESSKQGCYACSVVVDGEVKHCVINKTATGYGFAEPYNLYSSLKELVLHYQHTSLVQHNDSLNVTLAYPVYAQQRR

In the first assay the target is PI3Kδ (Homo sapiens (Human), UniProt O00329). In words: PI3K enzyme assay, [γ-33P]ATP filter plate (Example A2). Particulars: Assay A2 (filter plate, 1000 μM ATP). The assay is classed as biochemical. Here is the method:
Example A2: PI3K Enzyme Assay
Lipid kinase substrate, phosphoinositol-4,5-bisphosphate (PIP2), are purchased from Echelon Biosciences (Salt Lake City, Utah). PI3K isoforms α, β, δ and γ are purchased from Millipore (Bedford, Mass.). ATP, MgCl2, DTT, EDTA, MOPS and CHAPS are purchased from Sigma-Aldrich (St. Louis, Mo.).
The kinase reaction are conducted in clear-bottom 96-well plate from Thermo Fisher Scientific in a final volume of 24 μL. Inhibitors are first diluted serially in DMSO and added to the plate wells before the addition of other reaction components. The final concentration of DMSO in the assay is 0.5%. The PI3K assays are carried out at room temperature in 20 mM MOPS, pH 6.7, 10 mM MgCl2, 5 mM DTT and CHAPS 0.03%. The reaction mixture is prepared containing 50 μM PIP2, kinase and varying concentration of inhibitors. Reactions are initiated by the addition of ATP containing 2.2 μCi [γ-^33P]ATP to a final concentration of 1000 μM. The final concentration of PI3K isoforms α, β, δ and γ in the assay were 1.3, 9.4, 2.9 and 10.8 nM, respectively. Reactions are incubated for 180 minutes and terminated by the addition of 100 μL of 1 M potassium phosphate pH 8.0, 30 mM EDTA quench buffer. A 100 μL aliquot of the reaction solution are then transferred to 96-well Millipore MultiScreen IP […] PVDF filter plate (The filter plate is prewetted with 200 μL 100% ethanol, distilled water, and 1 M potassium phosphate pH 8.0, respectively). The filter plate is aspirated on a Millipore Manifold under vacuum and washed with 18×200 μL wash buffer containing 1 M potassium phosphate pH 8.0 and 1 mM ATP. After drying by aspiration and blotting, the plate is air dried in an incubator at 37° C. overnight. Packard TopCount adapter (Millipore) is then attached to the plate followed with addition of 120 μL Microscint 20 scintillation cocktail (Perkin Elmer) in each well. After the plate sealing, the radioactivity of the product is determined by scintillation counting on Topcount (Perkin-Elmer). IC50 determination is performed by fitting the curve of percent control activity versus the log of the inhibitor concentration using the GraphPad Prism 3.0 software.
By pIC50 is commonly meant the negative decadic logarithm of the IC50, by convention in mol/L. Higher therefore signals a low IC50. In the case of `Cc1nn(C(C)c2cc(Cl)c(F)c3c2OCCCN(S(C)(=O)=O)C3)c2ncnc(N)c12` (stereo not drawn) [Example 45, 1-{1-[8-Chloro-7-fluoro-5-(methylsulfonyl)-3,4,5,6-tetrahydro-2H-1,5-benzoxazocin-10-yl]ethyl}-3-methyl-1H-pyrazolo[3,4-d]pyrimidin-4-amine], the pIC50 is no less than 7.00.

With `Cc1nn(C(C)c2cc(Cl)c(F)c3c2OC(C)CN(C2CN(C(=O)OC(C)(C)C)C2)C3)c2ncnc(N)c12` (single isomer, unassigned) [Example 27, tert-Butyl 3-[9-[1-(4-amino-3-methyl-1H-pyrazolo[3,4-d]pyrimidin-1-yl)ethyl]-7-chloro-6-fluoro-2-methyl-2,3-dihydro-1,4-benzoxazepin-4(5H)-yl]azetidine-1-carboxylate], the pIC50 was no less than 7.00. Consider `CCC(=O)N1CC(N2Cc3c(C#N)c(Cl)cc(C(C)n4nc(C)c5c(N)ncnc54)c3OC(C)C2)C1` (stereo not drawn) [Example 96, 9-[1-(4-amino-3-methyl-1H-pyrazolo[3,4-d]pyrimidin-1-yl)ethyl]-7-chloro-2-methyl-4-(1-propionylazetidin-3-yl)-2,3,4,5-tetrahydro-1,4-benzoxazepine-6-carbonitrile], for which the pIC50 was no less than 7.00. Regarding `COC(=O)N1CC(N2Cc3c(F)c(Cl)cc(C(C)n4nc(C)c5c(N)ncnc54)c3OC(C)C2)C1` (single isomer, unassigned) [Example 79, methyl 3-[9-[1-(4-amino-3-methyl-1H-pyrazolo[3,4-d]pyrimidin-1-yl)ethyl]-7-chloro-6-fluoro-2-methyl-2,3-dihydro-1,4-benzoxazepin-4(5H)-yl]azetidine-1-carboxylate], the negative logarithm of the IC50 (pIC50) was no less than 7.00.

The next assay deals with SUDHL-6 cell line (diffuse large B cell lymphoma). The assay is described as follows: SUDHL-6 cell proliferation assay (Example B3). The class given is cell-based. The settings on record: Homo sapiens, SU-DHL-6, 72 h, SUDHL-6 cells, 3 days, Cell Titer-GLO. In a few lines: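 Cells in RPMI/10% FBS, 5000 per well, exposed to a concentration range of test compound for 3 days. Viability read as ATP content by CellTiter-Glo luminescence after 10 min at room temperature; IC50 derived from the luminescence.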
A general note: ATP-based viability assays read luminescence as a measure of living cells.
For the molecule `Cc1nn(C(C)c2cc(Cl)c(F)c3c2OCCCN(S(C)(=O)=O)C3)c2ncnc(N)c12` (stereo not drawn) [Example 45, 1-{1-[8-Chloro-7-fluoro-5-(methylsulfonyl)-3,4,5,6-tetrahydro-2H-1,5-benzoxazocin-10-yl]ethyl}-3-methyl-1H-pyrazolo[3,4-d]pyrimidin-4-amine], the negative-log IC50 (pIC50) was no less than 6.30. `CCC(=O)N1CC(N2Cc3c(C#N)c(Cl)cc(C(C)n4nc(C)c5c(N)ncnc54)c3OC(C)C2)C1` (stereo not drawn) [Example 96, 9-[1-(4-amino-3-methyl-1H-pyrazolo[3,4-d]pyrimidin-1-yl)ethyl]-7-chloro-2-methyl-4-(1-propionylazetidin-3-yl)-2,3,4,5-tetrahydro-1,4-benzoxazepine-6-carbonitrile]: the negative logarithm of the IC50 (pIC50) was no less than 6.30.

Take `Cc1nn(C(C)c2cc(Cl)c(F)c3c2O[C@@H](C)CN(C2CC(C(N)=O)C2)C3)c2ncnc(N)c12` (single isomer, unassigned) [Example 44]: the negative logarithm of the IC50 (pIC50) is no less than 6.30. `Cc1nn(C(C)c2cc(Cl)c(F)c3c2OC(C)CN(C[C@@H](C)O)C3)c2ncnc(N)c12` (single isomer, unassigned) [Example 78] showed a pIC50 of no less than 6.30. On the same count and under the same terms, the result for `Cc1nn(C(C)c2cc(Cl)c(C#N)c3c2OC(C)CN(C2CN(S(C)(=O)=O)C2)C3)c2ncnc(N)c12` (single isomer, unassigned) [Example 93, 9-[1-(4-amino-3-methyl-1H-pyrazolo[3,4-d]pyrimidin-1-yl)ethyl]-7-chloro-2-methyl-4-[1-(methylsulfonyl)azetidin-3-yl]-2,3,4,5-tetrahydro-1,4-benzoxazepine-6-carbonitrile] reads no less than 6.30; that for `Cc1nn(C(C)c2cc(Cl)c(C#N)c3c2OCCN(C2CN(C(=O)NC(C)C)C2)C3)c2ncnc(N)c12` (stereo not drawn) [Example 91, 3-[9-[1-(4-amino-3-methyl-1H-pyrazolo[3,4-d]pyrimidin-1-yl)ethyl]-7-chloro-6-cyano-2,3-dihydro-1,4-benzoxazepin-4(5H)-yl]-N-isopropylazetidine-1-carboxamide], no less than 6.30. Still for that read-out and setting: next, `CCOC(=O)N1CC(N2Cc3c(C#N)c(Cl)cc(C(C)n4nc(C)c5c(N)ncnc54)c3OC(C)C2)C1` (single isomer, unassigned) [Example 99, ethyl 3-[9-[1-(4-amino-3-methyl-1H-pyrazolo[3,4-d]pyrimidin-1-yl)ethyl]-7-chloro-6-cyano-2-methyl-2,3-dihydro-1,4-benzoxazepin-4(5H)-yl]azetidine-1-carboxylate]: no less than 6.30; `Cc1c(Cl)cc(C(C)n2nc(C)c3c(N)ncnc32)c2c1CN(C(=O)CC#N)CCO2` (stereo not drawn) [Example 12, 3-[9-[1-(4-Amino-3-methyl-1H-pyrazolo[3,4-d]pyrimidin-1-yl)ethyl]-7-chloro-6-methyl-2,3-dihydro-1,4-benzoxazepin-4(5H)-yl]-3-oxopropanenitrile trifluoroacetate]: no less than 6.30. On to `COC(=O)N1CC(N2Cc3c(F)c(Cl)cc(C(C)n4nc(C)c5c(N)ncnc54)c3OC(C)C2)C1` (single isomer, unassigned) [Example 80, methyl 3-[9-[1-(4-amino-3-methyl-1H-pyrazolo[3,4-d]pyrimidin-1-yl)ethyl]-7-chloro-6-fluoro-2-methyl-2,3-dihydro-1,4-benzoxazepin-4(5H)-yl]azetidine-1-carboxylate], for which the pIC50 is no less than 6.30.

Take `Cc1nn([C@@H](C)c2cc(Cl)c(F)c3c2O[C@@H](C)CN(C2CN(C[C@H](C)O)C2)C3)c2ncnc(N)c12` [Example 85, (2S)-1-{3-[(2S)-9-[(1S)-1-(4-amino-3-methyl-1H-pyrazolo[3,4-d]pyrimidin-1-yl)ethyl]-7-chloro-6-fluoro-2-methyl-2,3-dihydro-1,4-benzoxazepin-4(5H)-yl]azetidin-1-yl}propan-2-ol]: the negative-log IC50 (pIC50) was no less than 6.30.

Regarding `Cc1nn(C(C)c2cc(Cl)c(C#N)c3c2OCCN(C2CN(CCO)C2)C3)c2ncnc(N)c12` (stereo not drawn) [Example 47, 9-[1-(4-amino-3-methyl-1H-pyrazolo[3,4-d]pyrimidin-1-yl)ethyl]-7-chloro-4-[1-(2-hydroxyethyl)azetidin-3-yl]-2,3,4,5-tetrahydro-1,4-benzoxazepine-6-carbonitrile], the pIC50 is no less than 6.30. In the case of `Cc1c(Cl)cc(C(C)n2nc(C)c3c(N)ncnc32)c2c1CN(C1CCCC1)CCO2` (stereo not drawn) [Example 6, 1-[1-(7-Chloro-4-cyclopentyl-6-methyl-2,3,4,5-tetrahydro-1,4-benzoxazepin-9-yl)ethyl]-3-methyl-1H-pyrazolo[3,4-d]pyrimidin-4-amine bis(trifluoroacetate)], the negative logarithm of the IC50 (pIC50) is no less than 6.30. The molecule `CCC(=O)N1CC(N2Cc3c(C#N)c(Cl)cc(C(C)n4nc(C)c5c(N)ncnc54)c3OC(C)C2)C1` (single isomer, unassigned) [Example 95, 9-[1-(4-amino-3-methyl-1H-pyrazolo[3,4-d]pyrimidin-1-yl)ethyl]-7-chloro-2-methyl-4-(1-propionylazetidin-3-yl)-2,3,4,5-tetrahydro-1,4-benzoxazepine-6-carbonitrile] gave a pIC50 of no less than 6.30.

The assay is the same for the next values; noted with them: SUDHL-6 cells, 3 days, Cell Titer-GLO.
In turn, `Cc1nn(C(C)c2cc(Cl)c(F)c3c2OC(C)CN(C2CN(C(=O)OC(C)(C)C)C2)C3)c2ncnc(N)c12` (single isomer, unassigned) [Example 27, tert-Butyl 3-[9-[1-(4-amino-3-methyl-1H-pyrazolo[3,4-d]pyrimidin-1-yl)ethyl]-7-chloro-6-fluoro-2-methyl-2,3-dihydro-1,4-benzoxazepin-4(5H)-yl]azetidine-1-carboxylate] had a negative logarithm of the IC50 (pIC50) of no less than 6.30. `CNC(=O)C1CC(N2Cc3c(C#N)c(Cl)cc(C(C)n4nc(C)c5c(N)ncnc54)c3OC(C)C2)C1` (single isomer, unassigned) [Example 115, 3-[9-[1-(4-amino-3-methyl-1H-pyrazolo[3,4-d]pyrimidin-1-yl)ethyl]-7-chloro-6-cyano-2-methyl-2,3-dihydro-1,4-benzoxazepin-4(5H)-yl]-N-methylcyclobutane-carboxamide] showed a pIC50 of no less than 6.30. Turning to `Cc1nn(C(C)c2cc(Cl)c(C#N)c3c2OC(C)CN(C2CN(CC(N)=O)C2)C3)c2ncnc(N)c12` (stereo not drawn) [Example 51, 2-{3-[9-[1-(4-Amino-3-methyl-1H-pyrazolo[3,4-d]pyrimidin-1-yl)ethyl]-7-chloro-6-cyano-2-methyl-2,3-dihydro-1,4-benzoxazepin-4(5H)-yl]azetidin-1-yl}acetamide], the pIC50 was no less than 6.30. On to `Cc1nn(C(C)c2cc(Cl)c(C#N)c3c2OC(C)CN(C2CN(S(=O)(=O)N(C)C)C2)C3)c2ncnc(N)c12` (single isomer, unassigned) [Example 106, 3-[9-[1-(4-amino-3-methyl-1H-pyrazolo[3,4-d]pyrimidin-1-yl)ethyl]-7-chloro-6-cyano-2-methyl-2,3-dihydro-1,4-benzoxazepin-4(5H)-yl]-N,N-dimethylazetidine-1-sulfonamide], for which the pIC50 was no less than 6.30.

Source of the values: patent US10259818B2, “Bicyclic azaheterocyclobenzylamines as PI3K inhibitors” (Incyte Corporation, priority 2012, dated 2019).
